In patent publication EP4745137A1 (Gluetacs Therapeutics (Shanghai) Co., Ltd., priority 2023, dated 2025):

Assays:
[1] = target: T1, IKZF3 (Homo sapiens, UniProt Q96SW2+Q9UKT9); experiment: Western-blot assay of substrate protein degradation in hPBMCs, IKZF3; type: cell-based; conditions: 24 hours of compound treatment, compounds tested at 50 nM and 500 nM (concentration of the table not stated)
T1 construct: endogenous in cells; host or cells: hPBMCs (Milecell Biotechnologies)

[2] = target: T2, human Cereblon WT GST-tagged protein (Homo sapiens, UniProt Q96SW2); experiment: CRBN-binding affinity by HTRF (CEREBLON BINDING kit); conditions: HTRF inhibitory activity, CEREBLON BINDING kit; read-out: HTRF IC50
T2 construct: purchased CISBIO 64BDCRBNPEH
T2 sequence (Q96SW2 whole entry): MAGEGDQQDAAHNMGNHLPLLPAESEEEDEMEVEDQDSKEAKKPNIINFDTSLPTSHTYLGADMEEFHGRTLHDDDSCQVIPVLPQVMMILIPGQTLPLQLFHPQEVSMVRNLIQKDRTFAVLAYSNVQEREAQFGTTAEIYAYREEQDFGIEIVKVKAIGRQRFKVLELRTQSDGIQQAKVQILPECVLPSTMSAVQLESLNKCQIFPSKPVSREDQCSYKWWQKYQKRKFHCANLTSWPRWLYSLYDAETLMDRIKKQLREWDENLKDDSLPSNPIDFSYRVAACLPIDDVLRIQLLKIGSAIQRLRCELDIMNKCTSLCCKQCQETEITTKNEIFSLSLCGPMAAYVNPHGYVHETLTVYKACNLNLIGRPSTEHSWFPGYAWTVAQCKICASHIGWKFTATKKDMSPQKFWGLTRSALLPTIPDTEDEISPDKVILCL

[3] = target: T3, IKZF1 (Homo sapiens, UniProt Q13422+Q96SW2); experiment: Western-blot assay of substrate protein degradation in hPBMCs, IKZF1; type: cell-based; conditions: 24 hours of compound treatment, compounds tested at 50 nM and 500 nM (concentration of the table not stated)
T3 construct: endogenous in cells; host or cells: hPBMCs (Milecell Biotechnologies)
T3 sequence (Q13422 whole entry): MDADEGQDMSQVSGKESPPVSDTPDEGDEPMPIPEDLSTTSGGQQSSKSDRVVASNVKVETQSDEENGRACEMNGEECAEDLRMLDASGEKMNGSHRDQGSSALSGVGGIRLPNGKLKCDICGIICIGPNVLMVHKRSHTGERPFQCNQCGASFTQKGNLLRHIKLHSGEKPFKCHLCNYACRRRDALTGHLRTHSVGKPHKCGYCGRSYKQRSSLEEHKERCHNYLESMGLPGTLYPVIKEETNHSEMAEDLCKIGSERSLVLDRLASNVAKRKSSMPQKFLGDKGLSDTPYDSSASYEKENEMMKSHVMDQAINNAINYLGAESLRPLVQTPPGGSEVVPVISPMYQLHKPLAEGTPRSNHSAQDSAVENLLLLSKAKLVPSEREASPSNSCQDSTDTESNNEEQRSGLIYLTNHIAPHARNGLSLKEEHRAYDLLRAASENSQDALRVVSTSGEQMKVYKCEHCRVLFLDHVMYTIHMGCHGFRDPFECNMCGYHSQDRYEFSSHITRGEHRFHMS
T3 sequence (Q96SW2 whole entry): as the sequence (Q96SW2 whole entry) above
T3 sequence (Q16531 whole entry partner): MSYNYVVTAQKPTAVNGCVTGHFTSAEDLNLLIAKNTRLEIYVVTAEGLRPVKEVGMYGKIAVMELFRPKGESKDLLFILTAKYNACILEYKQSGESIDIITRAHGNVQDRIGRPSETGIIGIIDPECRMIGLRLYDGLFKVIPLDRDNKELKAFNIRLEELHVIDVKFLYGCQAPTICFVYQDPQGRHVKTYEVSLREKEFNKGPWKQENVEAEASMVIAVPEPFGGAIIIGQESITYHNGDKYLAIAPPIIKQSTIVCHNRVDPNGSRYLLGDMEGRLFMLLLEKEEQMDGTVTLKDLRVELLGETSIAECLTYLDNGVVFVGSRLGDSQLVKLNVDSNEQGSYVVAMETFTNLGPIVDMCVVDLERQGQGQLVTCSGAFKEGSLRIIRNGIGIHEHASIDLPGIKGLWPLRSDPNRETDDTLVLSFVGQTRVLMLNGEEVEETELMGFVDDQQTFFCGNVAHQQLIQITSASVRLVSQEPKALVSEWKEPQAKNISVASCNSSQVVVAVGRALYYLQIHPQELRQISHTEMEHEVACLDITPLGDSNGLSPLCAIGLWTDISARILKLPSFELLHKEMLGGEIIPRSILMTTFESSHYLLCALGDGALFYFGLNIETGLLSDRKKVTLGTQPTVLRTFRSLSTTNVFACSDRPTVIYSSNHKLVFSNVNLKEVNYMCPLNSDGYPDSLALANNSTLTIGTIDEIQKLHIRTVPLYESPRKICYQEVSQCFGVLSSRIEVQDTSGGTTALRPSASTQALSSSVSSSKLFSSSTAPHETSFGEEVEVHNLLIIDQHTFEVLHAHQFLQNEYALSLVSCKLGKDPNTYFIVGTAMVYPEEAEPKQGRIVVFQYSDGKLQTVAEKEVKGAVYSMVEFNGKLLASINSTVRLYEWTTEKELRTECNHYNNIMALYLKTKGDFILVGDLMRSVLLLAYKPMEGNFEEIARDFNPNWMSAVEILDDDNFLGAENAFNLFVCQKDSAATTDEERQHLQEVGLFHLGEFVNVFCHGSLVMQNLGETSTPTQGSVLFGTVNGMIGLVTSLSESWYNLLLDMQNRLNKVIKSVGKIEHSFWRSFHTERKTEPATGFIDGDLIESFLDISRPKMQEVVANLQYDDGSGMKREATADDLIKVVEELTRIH

[4] = target: T4, GSPT1 (Homo sapiens, UniProt P15170+Q96SW2); experiment: Western-blot assay of substrate protein degradation in hPBMCs, GSPT1; type: cell-based; conditions: 24 hours of compound treatment, compounds tested at 50 nM and 500 nM (concentration of the table not stated)
T4 construct: endogenous in cells; host or cells: hPBMCs (Milecell Biotechnologies)
T4 sequence (P15170 whole entry): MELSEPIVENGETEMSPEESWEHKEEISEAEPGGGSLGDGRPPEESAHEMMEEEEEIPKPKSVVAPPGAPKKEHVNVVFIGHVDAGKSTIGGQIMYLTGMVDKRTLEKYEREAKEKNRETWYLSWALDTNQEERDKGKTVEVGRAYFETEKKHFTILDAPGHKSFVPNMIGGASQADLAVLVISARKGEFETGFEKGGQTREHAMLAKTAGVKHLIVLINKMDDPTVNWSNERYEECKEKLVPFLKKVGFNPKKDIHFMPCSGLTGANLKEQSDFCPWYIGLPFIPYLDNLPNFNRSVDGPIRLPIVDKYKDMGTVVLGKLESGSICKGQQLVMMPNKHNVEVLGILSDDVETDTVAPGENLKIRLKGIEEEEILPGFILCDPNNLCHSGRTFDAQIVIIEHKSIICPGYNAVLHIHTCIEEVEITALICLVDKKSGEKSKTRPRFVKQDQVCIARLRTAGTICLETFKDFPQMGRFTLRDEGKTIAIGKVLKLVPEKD
T4 sequence (Q96SW2 whole entry): as the sequence (Q96SW2 whole entry) above
T4 sequence (Q16531 whole entry partner): as the sequence (Q16531 whole entry partner) above

[5] = target: T5, CK1α (Homo sapiens, UniProt P48729+Q96SW2); experiment: Western-blot assay of substrate protein degradation in hPBMCs, CK1α; type: cell-based; conditions: 24 hours of compound treatment, compounds tested at 50 nM and 500 nM (concentration of the table not stated)
T5 construct: endogenous in cells; host or cells: hPBMCs (Milecell Biotechnologies)

[6] = target: T6, IKZF2 (Homo sapiens, UniProt Q96SW2+Q9UKS7); experiment: Western-blot assay of substrate protein degradation in hPBMCs, IKZF2; type: cell-based; conditions: 24 hours of compound treatment, compounds tested at 50 nM and 500 nM (concentration of the table not stated)
T6 construct: endogenous in cells; host or cells: hPBMCs (Milecell Biotechnologies)
T6 sequence (Q9UKS7 whole entry): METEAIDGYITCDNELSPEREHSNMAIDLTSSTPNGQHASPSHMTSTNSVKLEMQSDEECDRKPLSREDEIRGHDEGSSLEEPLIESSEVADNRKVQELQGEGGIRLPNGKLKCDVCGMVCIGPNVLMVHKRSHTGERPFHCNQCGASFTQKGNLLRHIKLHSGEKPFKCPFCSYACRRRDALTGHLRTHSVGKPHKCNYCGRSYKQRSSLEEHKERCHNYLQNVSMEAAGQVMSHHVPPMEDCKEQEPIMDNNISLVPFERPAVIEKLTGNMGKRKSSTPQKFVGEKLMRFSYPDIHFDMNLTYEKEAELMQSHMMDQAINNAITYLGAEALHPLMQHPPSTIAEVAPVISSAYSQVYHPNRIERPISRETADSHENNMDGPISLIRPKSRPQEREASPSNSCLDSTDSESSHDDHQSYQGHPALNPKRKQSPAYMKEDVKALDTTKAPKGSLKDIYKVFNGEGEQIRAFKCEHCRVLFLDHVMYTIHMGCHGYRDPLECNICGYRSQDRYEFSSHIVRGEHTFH
T6 sequence (Q96SW2 whole entry): as the sequence (Q96SW2 whole entry) above
T6 sequence (Q16531 whole entry partner): as the sequence (Q16531 whole entry partner) above

[7] = target: T7, WEE1 (Homo sapiens, UniProt P30291+Q96SW2); experiment: Western-blot assay of substrate protein degradation in hPBMCs, WEE1; type: cell-based; conditions: 24 hours of compound treatment, compounds tested at 50 nM and 500 nM (concentration of the table not stated)
T7 construct: endogenous in cells; host or cells: hPBMCs (Milecell Biotechnologies)
T7 sequence (P30291 whole entry): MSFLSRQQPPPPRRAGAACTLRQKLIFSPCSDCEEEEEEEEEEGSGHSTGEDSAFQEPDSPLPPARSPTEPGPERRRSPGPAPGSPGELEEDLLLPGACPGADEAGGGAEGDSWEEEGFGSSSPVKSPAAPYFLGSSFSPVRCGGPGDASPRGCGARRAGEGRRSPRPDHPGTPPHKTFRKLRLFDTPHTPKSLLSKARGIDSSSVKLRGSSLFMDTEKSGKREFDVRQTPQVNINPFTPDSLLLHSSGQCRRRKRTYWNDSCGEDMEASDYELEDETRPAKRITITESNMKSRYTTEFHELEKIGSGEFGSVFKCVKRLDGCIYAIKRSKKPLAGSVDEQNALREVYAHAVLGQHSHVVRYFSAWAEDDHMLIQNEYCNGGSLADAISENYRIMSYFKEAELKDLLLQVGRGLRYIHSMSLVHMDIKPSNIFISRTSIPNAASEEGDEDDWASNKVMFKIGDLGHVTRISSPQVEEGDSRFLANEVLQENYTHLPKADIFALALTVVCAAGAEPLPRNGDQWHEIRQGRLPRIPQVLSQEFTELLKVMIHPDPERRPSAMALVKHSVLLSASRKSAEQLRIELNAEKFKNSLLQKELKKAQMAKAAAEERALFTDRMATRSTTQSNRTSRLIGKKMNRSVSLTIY
T7 sequence (Q96SW2 whole entry): as the sequence (Q96SW2 whole entry) above
T7 sequence (Q16531 whole entry partner): as the sequence (Q16531 whole entry partner) above

T1 sequence (Q9UKT9 whole entry): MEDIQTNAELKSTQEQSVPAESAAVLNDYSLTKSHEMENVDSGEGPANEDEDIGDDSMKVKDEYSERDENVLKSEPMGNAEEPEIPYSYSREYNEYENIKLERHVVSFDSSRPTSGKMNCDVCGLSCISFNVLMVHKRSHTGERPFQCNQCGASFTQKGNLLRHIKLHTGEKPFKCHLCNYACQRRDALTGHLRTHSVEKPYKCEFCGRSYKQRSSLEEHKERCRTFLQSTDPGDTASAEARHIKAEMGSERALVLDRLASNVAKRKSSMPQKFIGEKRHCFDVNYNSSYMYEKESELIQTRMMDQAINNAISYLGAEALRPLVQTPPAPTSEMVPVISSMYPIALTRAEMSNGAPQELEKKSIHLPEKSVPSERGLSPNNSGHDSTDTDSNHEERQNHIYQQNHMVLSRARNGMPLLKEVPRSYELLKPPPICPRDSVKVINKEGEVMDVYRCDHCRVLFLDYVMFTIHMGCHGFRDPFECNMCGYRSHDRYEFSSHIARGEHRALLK
T1 sequence (Q96SW2 whole entry): as the sequence (Q96SW2 whole entry) above
T1 sequence (Q16531 whole entry partner): as the sequence (Q16531 whole entry partner) above

| SMILES | IC50 [2] | IKZF3 substrate protein remaining % [1] | IKZF 1 substrate protein remaining % [3] | GSPT1 substrate protein remaining % [4] | CK1a substrate protein remaining % [5] | IKZF2 substrate protein remaining % [6] | Weel substrate protein remaining % [7] |
| --- | --- | --- | --- | --- | --- | --- | --- |
| O=C1CCC(N2Cc3cc(CN4CCCC(C5CCNCC5)C4)ccc3C2=O)C(=O)N1 (centres unmarked) [GT-04591, 3-(5-([3,4'-bipiperidin]-1-ylmethyl)-1-oxoisoindolin-2-yl)piperidine-2,6-dione] | 1500 to 1900 nM | B (80%< substrate protein remaining %≤ 100%) | B (80%< substrate protein remaining %≤ 100%) | A (0% ≤ substrate protein remaining % ≤ 80%) | A (0% ≤ substrate protein remaining % ≤ 80%) | B (80%< substrate protein remaining %≤ 100%) | B (80%< substrate protein remaining %≤ 100%) |
| O=C1CCC(N2Cc3cc(CN4CCN(c5c(Cl)cncc5Br)CC4)ccc3C2=O)C(=O)N1 (centres unmarked) [GT-04600, 3-(5-((4-(3-bromo-5-chloropyridin-4-yl)piperazin-1-yl)methyl)-1-oxoisoindolin-2-yl)piperidine-2,6-dione] | 500 to 1000 nM | A (0% ≤ substrate protein remaining % ≤ 80%) | A (0% ≤ substrate protein remaining % ≤ 80%) | A (0% ≤ substrate protein remaining % ≤ 80%) | B (80%< substrate protein remaining %≤ 100%) | A (0% ≤ substrate protein remaining % ≤ 80%) | A (0% ≤ substrate protein remaining % ≤ 80%) |
| O=C1CCC(N2Cc3cc(CN4CCN(c5c(F)cncc5Cl)CC4)ccc3C2=O)C(=O)N1 (centres unmarked) [GT-04611, 3-(5-((4-(3-chloro-5-fluoropyridin-4-yl)piperazin-1-yl)methyl)-1-oxoisoindolin-2-yl)piperidine-2,6-dione] | 500 to 1000 nM | B (80%< substrate protein remaining %≤ 100%) | B (80%< substrate protein remaining %≤ 100%) | A (0% ≤ substrate protein remaining % ≤ 80%) | B (80%< substrate protein remaining %≤ 100%) | B (80%< substrate protein remaining %≤ 100%) | A (0% ≤ substrate protein remaining % ≤ 80%) |
| O=C1CCC(N2Cc3cc(CN4CCN(c5ccnc(Cl)c5F)CC4)ccc3C2=O)C(=O)N1 (centres unmarked) [GT-04612, 3-(5-((4-(2-chloro-3-fluoropyridin-4-yl)piperazin-1-yl)methyl)-1-oxoisoindolin-2-yl)piperidine-2,6-dione] | 500 to 1000 nM | B (80%< substrate protein remaining %≤ 100%) | B (80%< substrate protein remaining %≤ 100%) | A (0% ≤ substrate protein remaining % ≤ 80%) | B (80%< substrate protein remaining %≤ 100%) | B (80%< substrate protein remaining %≤ 100%) | A (0% ≤ substrate protein remaining % ≤ 80%) |
| O=C1CCC(N2Cc3cc(CN4CCN(c5ccnc(Cl)c5Br)CC4)ccc3C2=O)C(=O)N1 (centres unmarked) [GT-04616, 3-(5-((4-(3-bromo-2-chloropyridin-4-yl)piperazin-1-yl)methyl)-1-oxoisoindolin-2-yl)piperidine-2,6-dione] | < 500 nM | B (80%< substrate protein remaining %≤ 100%) | B (80%< substrate protein remaining %≤ 100%) | A (0% ≤ substrate protein remaining % ≤ 80%) | B (80%< substrate protein remaining %≤ 100%) | B (80%< substrate protein remaining %≤ 100%) | B (80%< substrate protein remaining %≤ 100%) |
| O=C1CCC(N2Cc3cc(CN4CCC(c5ccnc6cc(F)ccc56)CC4)ccc3C2=O)C(=O)N1 (centres unmarked) [GT-04648, 3-(5-((4-(7-fluoroquinolin-4-yl)piperidin-1-yl)methyl)-1-oxoisoindolin-2-yl)piperidine-2,6-dione] | 500 to 1000 nM | A (0% ≤ substrate protein remaining % ≤ 80%) | A (0% ≤ substrate protein remaining % ≤ 80%) | A (0% ≤ substrate protein remaining % ≤ 80%) | B (80%< substrate protein remaining %≤ 100%) | A (0% ≤ substrate protein remaining % ≤ 80%) | B (80%< substrate protein remaining %≤ 100%) |
| O=C1CCC(N2Cc3cc(CN4CCC(=C5CCOc6cc(F)ccc65)CC4)ccc3C2=O)C(=O)N1 (centres unmarked) [GT-04649, 3-(5-((4-(7-fluorochroman-4-ylidene)piperidin-1-yl)methyl)-1-oxoisoindolin-2-yl)piperidine-2,6-dione] | < 500 nM | A (0% ≤ substrate protein remaining % ≤ 80%) | A (0% ≤ substrate protein remaining % ≤ 80%) | A (0% ≤ substrate protein remaining % ≤ 80%) | B (80%< substrate protein remaining %≤ 100%) | A (0% ≤ substrate protein remaining % ≤ 80%) | B (80%< substrate protein remaining %≤ 100%) |

Further lines, with some results ahead:

| IC50 [2] | SMILES | IKZF3 substrate protein remaining % [1] | IKZF 1 substrate protein remaining % [3] | GSPT1 substrate protein remaining % [4] | CK1a substrate protein remaining % [5] | IKZF2 substrate protein remaining % [6] | Weel substrate protein remaining % [7] |
| --- | --- | --- | --- | --- | --- | --- | --- |
| 1000 to 1500 nM | O=C1CCC(N2Cc3cc(CN4CCN(c5ccncc5F)CC4)ccc3C2=O)C(=O)N1 (centres unmarked) [GT-04581, 3-(5-((4-(3-fluoropyridin-4-yl)piperazin-1-yl)methyl)-1-oxoisoindolin-2-yl)piperidine-2,6-dione] | A (0% ≤ substrate protein remaining % ≤ 80%) | B (80%< substrate protein remaining %≤ 100%) | B (80%< substrate protein remaining %≤ 100%) | B (80%< substrate protein remaining %≤ 100%) | A (0% ≤ substrate protein remaining % ≤ 80%) | B (80%< substrate protein remaining %≤ 100%) |
| 1000 to 1500 nM | O=C1CCC(N2Cc3cc(CN4CCC(c5ccoc5)CC4)ccc3C2=O)C(=O)N1 (centres unmarked) [GT-04590, 3-(5-((4-(furan-3-yl)piperidin-1-yl)methyl)-1-oxoisoindolin-2-yl)piperidine-2,6-dione] | B (80%< substrate protein remaining %≤ 100%) | B (80%< substrate protein remaining %≤ 100%) | A (0% ≤ substrate protein remaining % ≤ 80%) | B (80%< substrate protein remaining %≤ 100%) | A (0% ≤ substrate protein remaining % ≤ 80%) | B (80%< substrate protein remaining %≤ 100%) |
| 1000 to 1500 nM | O=C1CCC(N2Cc3cc(CN4CCN(c5c(Cl)cccc5Cl)CC4)ccc3C2=O)C(=O)N1 (centres unmarked) [GT-04613, 3-(5-((4-(2,6-dichlorophenyl)piperazin-1-yl)methyl)-1-oxoisoindolin-2-yl)piperidine-2,6-dione] | B (80%< substrate protein remaining %≤ 100%) | B (80%< substrate protein remaining %≤ 100%) | A (0% ≤ substrate protein remaining % ≤ 80%) | B (80%< substrate protein remaining %≤ 100%) | B (80%< substrate protein remaining %≤ 100%) | A (0% ≤ substrate protein remaining % ≤ 80%) |
| < 500 nM | O=C1CCC(N2Cc3cc(CN4CCC(c5cccc6cnccc56)CC4)ccc3C2=O)C(=O)N1 (centres unmarked) [GT-04665, 3-(5-((4-(isoquinolin-5-yl)piperidin-1-yl)methyl)-1-oxoisoindolin-2-yl)piperidine-2,6-dione] | A (0% ≤ substrate protein remaining % ≤ 80%) | A (0% ≤ substrate protein remaining % ≤ 80%) | A (0% ≤ substrate protein remaining % ≤ 80%) | A (0% ≤ substrate protein remaining % ≤ 80%) | A (0% ≤ substrate protein remaining % ≤ 80%) | A (0% ≤ substrate protein remaining % ≤ 80%) |
